These results are taken from patent publication US20210113501A1, “METHOD OF ADMINISTERING BETA-HYDROXY-BETA-METHYLBUTYRATE (HMB)” (Metabolic Technologies, Inc., priority 2009, published 2021).

The test system of this assay is protein degradation in muscle. In words: Urinary 3-methylhistidine to creatinine ratio after an acute exercise bout. In kind it is in vivo, human. On the procedure: Subjects: We conducted a study at the Iowa State University Health and Human Performance Laboratory; this study was approved by the Iowa State University Institutional Review Board, and was registered at ClinicalTrials.gov (NCT01150526). We recruited 12 men and 13 women between the ages of 20 and 36 from the Iowa State University community and surrounding area.
Treatments: The experimental design is depicted in FIG. 8.
Five treatments were administered as follows: Treatment 1: Placebo. This group received a placebo capsule and a placebo syringe dosage at each dosage administration. Treatment 2: CaHMB pre-exercise. This group received a CaHMB capsule and a placebo syringe dosage 30 min prior to the acute exercise bout. The remaining additional dosages during the study consisted of one placebo capsule and one placebo syringe dosage. Treatment 3: HMB-acid gel pre-exercise. This group received a placebo capsule and a syringe dosage of HMB-acid gel 30 min prior to the acute exercise bout. The remaining additional dosages during the study consisted of one placebo capsule and one placebo syringe dosage. Treatment 4: CaHMB pre- and post-exercise. This group received a CaHMB capsule and a placebo syringe dosage at all administration times during the study. Treatment 5: HMB-acid gel pre- and post-exercise. This group received a syringe dosage of HMB-acid gel and one placebo capsule at all administration times during the study.
To blind the treatments to both the researchers and subjects, each subject took a capsule and syringe dosage of supplement at each administration. The capsules contained either one gram of calcium lactate (Placebo) or one gram of calcium β-hydroxy-β-methylbutryate (CaHMB). The syringe dosages were formulated to be similar in taste and appearance and contained either 0.8 g of corn syrup (Placebo) or 0.8 g of β-hydroxy-β-methylbutryate free acid, the same amount of HMB as in the capsule dosage. The 3 daily doses provided the same total HMB dosage (2.4 g as calcium HMB in the capsules or 2.4 g as HMB free acid in the syringes).
Eccentric Exercise Bout: Subjects refrained from vigorous exercise for three days before reporting to the laboratory. All subjects were studied after an overnight fast. […] Subjects then consumed their assigned supplement and 30 minutes later the eccentric exercise session was performed. The exercise consisted of 50 maximal effort contractions of knee extensors while attempting to resist the Biodex lever arm as it moves the knee joint from full extension to 90 degrees flexion; this is similar to letting a heavy weight down slowly while in a seated position. Each contraction lasted about 2 seconds and 12 seconds were allowed between contractions. This protocol was performed on the right leg followed by the left leg. The subjects received 2 more daily dosages of treatment (placebo or HMB) with instructions to take the dosages at lunch and dinner. For the next 4 days the subjects returned to the laboratory fasted each morning, had blood taken and urine collected and then consumed the morning dosage of their supplement. The subjects were again given the 2 remaining daily supplement dosages with instructions to take them at lunch and dinner.
Serum and Urine Samples: A fasting blood sample was taken from a superficial forearm vein each morning when the subjects reported to the laboratory for testing. Additionally a clean catch urine sample was collected at this time. Serum CPK was analyzed by a commercial laboratory (Quest Diagnostics, Madison N.J.). Urine 3-Methylhistidine (3MH) was analyzed by a previously published GC/MS method (9). Urinary creatinine was analyzed by colorimetric assay (Cayman Chemical Company, Ann Arbor, Mich.). The urinary 3MH data was normalized to urinary creatinine and expressed as 3MH:creatinine ratio, μmol:mg.
Statistics: Data were analyzed using the mixed model procedure in Statistical Analysis System for Windows (Release 9.1.3, SAS Institute, Cary, N.C.). […]

`CC(C)(O)CC(=O)[O-].CC(C)(O)CC(=O)[O-].[Ca+2]` [CaHMB, calcium β-hydroxy-β-methylbutryate, reference compound]: the “3MH:Cr” value was found to be 0.205 ± 0.025 µmol/mg (Baseline, dosed pre- and post exercise (Treatments 4, 5)); 0.164 ± 0.037 µmol/mg (Baseline, dosed pre-exercise only (Treatments 2, 3)); 0.203 ± 0.039 µmol/mg (at 24 h, dosed pre- and post exercise (Treatments 4, 5)); 0.190 ± 0.027 µmol/mg (at 24 h, dosed pre-exercise only (Treatments 2, 3)); 0.220 ± 0.027 µmol/mg (at 48 h, dosed pre- and post exercise (Treatments 4, 5)); 0.240 ± 0.052 µmol/mg (at 48 h, dosed pre-exercise only (Treatments 2, 3)). For the same molecule, the “3MH:Cr” value by setting is: (at 72 h, dosed pre- and post exercise (Treatments 4, 5)) 0.231 ± 0.037 µmol/mg; (at 72 h, dosed pre-exercise only (Treatments 2, 3)) 0.204 ± 0.058 µmol/mg; (at 96 h, dosed pre- and post exercise (Treatments 4, 5)) 0.269 ± 0.038 µmol/mg; (at 96 h, dosed pre-exercise only (Treatments 2, 3)) 0.187 ± 0.029 µmol/mg.
